Measurements as given in patent US12297295B2, “Peptide for treating cancer” (Saint Leo University, priority 2019, dated 2025).
Where no end group is shown, it is not given here.

Experiments:
CMG helicase [1] = target: T1, CMG helicase (Xenopus laevis, UniProt Q91876); experiment: S phase arrested Xenopus egg extracts, chromatin RPA Western blot as readout for DNA helicase activity; assay type: biochemical; settings: 250 μM peptide, 90 min incubation
T1 construct: from tissue; host or cells: S phase arrested Xenopus egg extracts (endogenous proteins on chromatin)
Method: The peptide of SEQ ID NO: 1 was synthesized using solid-phase synthesis. The product was purified using HPLC to a purity of about 99%. 250 μM of peptide Ex7 ([…]) (SEQ ID NO: 8), peptide 7N (circularized—KGEVLQMEDDLV) (SEQ ID NO: 9), peptide 7M (ISFQLMLCVLDYF) (SEQ ID NO: 1), or peptide 7C (IKLSPPMLLKEPYK) (SEQ ID NO: 10) were incubated in S phase arrested Xenopus egg extracts. Following a 90 min incubation, chromatin was isolated and probed by Western blotting for RPA protein as a readout for DNA helicase activity. Additionally, peptide 7MN (ISFQLML) (SEQ ID NO: 5), peptide 7MM (QLMLCVL) (SEQ ID NO: 2), and peptide 7MC (LCVLDYF) (SEQ ID NO: 6) were tested.
250 μM of each of peptides 7α (DLVISFQLMLCVLDYFIK) (SEQ ID NO: 14), 7α-ln (LVISFQLMLCVLDYFIK) (SEQ ID NO: 22), 7α-2n (VISFQLMLCVLDYFIK) (SEQ ID NO: 23), 7α-3n (ISFQLMLCVLDYFIK) (SEQ ID NO: 24), 7α-4n (SFQLMLCVLDYFIK) (SEQ ID NO: 25), 7α-5n (FQLMLCVLDYFIK) (SEQ ID NO: 26), 7α-6n (QLMLCVLDYFIK) (SEQ ID NO: 27), 7α-7n (LMLCVLDYFIK) (SEQ ID NO: 28), 7α-17c (DLVISFQLMLCVLDYF) (SEQ ID NO: 29), 7α-16c (DLVISFQLMLCVLDY) (SEQ ID NO: 30), 7α-15c (DVISFQLMLCVLD) (SEQ ID NO: 31), 7α-14c (DVISFQLMLCVL) (SEQ ID NO: 32), 7α-11c (DVISFQLML) (SEQ ID NO: 33) was incubated in S phase arrested Xenopus egg extracts. Following a 90 min incubation, chromatin was isolated and probed by Western blotting for RPA protein as a readout for DNA helicase activity.

[2] = test system: BT-549 breast cancer cells; settings: for IC50: 96 h
Method: The effect of Peptides 7M and 7MM on BT-549 breast cancer cells (ATCC #HTB-122) was studied. Pierce Protein Transfection reagent (Thermo Scientific, 89850) was used to deliver peptide to the cultured cells. BT-549 breast cancer cells were transfected with 0.625-20 μM Peptide 7M or 1.25-10 μM Peptide 7MM for 3.5 hrs, incubated in a complete media for a duration of two doubling times (96 hours), and assessed for viability by using a CCK-8 colorimetric assay.
(§1) IC50 values were calculated from obtained equations that describe cell viability as a function of peptide concentration.

[3] = test system: HMEC primary mammary epithelial normal cells
Method: HMEC mammary epithelial cells (ATCC #PCS-600-010) were transfected with 1.25-20 μM peptide 7α for 3.5 hrs, incubated in a complete media for a duration of two doubling times, and assessed for viability by using a CCK-8 colorimetric assay (Dojindo Molecular Technologies, Inc.).
HMEC primary normal epithelial breast cells (ATCC #PCS-600-010) were transfected with 1.25-10 μM peptide 7MM for 3.5 hrs, incubated in a complete media for a duration of two doubling times, and assessed for viability by using a CCK-8 colorimetric assay (Dojindo Molecular Technologies, Inc.).
as §1

[4] = test system: M059J glioma cancer cells; settings: for IC50: 48 h; for effect on viability of M059J glioma cells: transfected 1.25-10 μM for 3.5 hrs, two doubling times, CCK-8
Method: (§2) Pierce Protein Transfection reagent (Thermo Scientific, 89850) was used to deliver peptide to the cultured cells.
M059J glioma cancer cells (ATCC #CRL-2366) were transfected with 1.25-10 μM peptide 7α for 3.5 hrs, incubated in a complete media for a duration of two doubling times, and assessed for viability by using a CCK-8 colorimetric assay (Dojindo Molecular Technologies, Inc.).
M059J glioma cancer cells (ATCC #CRL-2366) were transfected with 1.25-10 μM peptide 7MM for 3.5 hrs, incubated in a complete media for a duration of two doubling times, and assessed for viability by using a CCK-8 colorimetric assay (Dojindo Molecular Technologies, Inc.).
as §1

[5] = test system: SVG p12 immortalized astroglia cells
Method: as §1

HepG2 liver cancer cells = settings: for IC50: 96 h
Method: as §2, §1

[6] = test system: THLE-3 immortalized normal liver cells; settings: for effect on viability of THLE-3 normal liver cells: transfected 1.25-10 μM for 3.5 hrs, two doubling times, CCK-8
Method: as §1

A549 lung cancer cells = settings: for effect on viability of A549 lung cancer cells: transfected 1.25-10 μM for 3.5 hrs, two doubling times, CCK-8
Method: as §1

H596 lung cancer cells = settings: for effect on viability of H596 lung cancer cells: transfected 1.25-10 μM for 3.5 hrs, two doubling times, CCK-8
Method: as §1

[7] = test system: HLF normal primary lung fibroblasts; settings: for effect on viability of HLF normal primary lung fibroblasts: transfected 1.25-10 μM for 3.5 hrs, two doubling times, CCK-8
Method: The effect of peptide 7α of viability of HLF normal primary lung fibroblasts was studied. HLF normal primary lung fibroblasts (ATCC #PCS-201-013) were transfected with 1.25-10 μM peptide 7α for 3.5 hrs, incubated in a complete media for a duration of two doubling times, and assessed for viability by using a CCK-8 colorimetric assay (Dojindo Molecular Technologies, Inc.).
The effect of peptide 7MM of viability of normal lung cells was studied. HLF normal primary lung fibroblasts (ATCC #PC S-201-013) were transfected with 1.25-10 μM peptide 7MM for 3.5 hrs, incubated in a complete media for a duration of two doubling times, and assessed for viability by using a CCK-8 colorimetric assay (Dojindo Molecular Technologies, Inc.).
as §1

[8] = test system: PANC-1 pancreatic cancer cells; settings: for IC50: 48 h
Method: The effect of Peptides 7M and 7MM on PANC-1 pancreatic cancer cells (ATCC #CRL-1469) was studied. Pierce Protein Transfection reagent (Thermo Scientific, 89850) was used to deliver peptide to the cultured cells. PANC-1 pancreatic cancer cells were transfected with 0.625-10 μM Peptide 7M or Peptide 7MM for 3.5 hrs, incubated in a complete media for a duration of two doubling times (48 hours), and assessed for viability by using a CCK-8 colorimetric assay.
The effect of peptide 7α of viability of pancreatic cancer cells was studied. PANC-1 pancreatic cancer cells (ATCC #CRL-1469) were transfected with 1.25-10 μM peptide 7α for 3.5 hrs, incubated in a complete media for a duration of two doubling times, and assessed for viability by using a CCK-8 colorimetric assay (Dojindo Molecular Technologies, Inc.).
as §1

[9] = test system: Hs 766T pancreatic cancer cells; settings: for effect on viability of Hs 766T pancreatic cancer cells: transfected 1.25-10 μM for 3.5 hrs, two doubling times, CCK-8
Method: as §1

[10] = test system: hTERT-HPNE immortalized normal pancreatic cells; settings: for effect on viability of hTERT-HPNE normal pancreatic cells: transfected 1.25-10 μM for 3.5 hrs, two doubling times, CCK-8
Method: as §1

[11] = test system: DU145 prostate cancer cells; settings: for effect on viability of DU145 prostate cancer cells: transfected 1.25-10 μM for 3.5 hrs, two doubling times, CCK-8
Method: DU145 prostate cancer cells (ATCC #HTB-81) were transfected with 1.25-10 μM peptide 7α for 3.5 hrs, incubated in a complete media for a duration of two doubling times, and assessed for viability by using a CCK-8 colorimetric assay (Dojindo Molecular Technologies, Inc.).
DU145 prostate cancer cells (ATCC #HTB-81) were transfected with 1.25-10 μM peptide 7MM for 3.5 hrs, incubated in a complete media for a duration of two doubling times, and assessed for viability by using a CCK-8 colorimetric assay (Dojindo Molecular Technologies, Inc.).
as §1

[12] = test system: PC3 prostate cancer cells; settings: for effect on viability of PC3 prostate cancer cells: transfected 1.25-10 μM for 3.5 hrs, two doubling times, CCK-8
Method: The effect of peptide 7α of viability of prostate cancer cells was studied. PC3 prostate cancer cells (ATCC #CRL-1435) were transfected with 1.25-10 μM peptide 7α for 3.5 hrs, incubated in a complete media for a duration of two doubling times, and assessed for viability by using a CCK-8 colorimetric assay (Dojindo Molecular Technologies, Inc.).
The effect of peptide 7MM of viability of prostate cancer cells was studied. PC3 prostate cancer cells (ATCC #CRL-1435) were transfected with 1.25-10 μM peptide 7MM for 3.5 hrs, incubated in a complete media for a duration of two doubling times, and assessed for viability by using a CCK-8 colorimetric assay (Dojindo Molecular Technologies, Inc.).
as §1

[13] = test system: HCT-116 colorectal cancer cells; settings: for effect on viability of HCT-116 colorectal cancer cells: transfected 1.25-10 μM for 3.5 hrs, two doubling times, CCK-8
Method: The effect of peptide 7MM of viability of colorectal cancer cells was studied. HCT-116 colorectal cancer cells (ATCC #CCL-247) were transfected with 1.25-10 μM peptide 7MM for 3.5 hrs, incubated in a complete media for a duration of two doubling times, and assessed for viability by using a CCK-8 colorimetric assay (Dojindo Molecular Technologies, Inc.).
as §1

[14] = test system: U-2 OS osteosarcoma cancer cells; settings: for effect on viability of U-2 OS osteosarcoma cancer cells: transfected 1.25-10 μM for 3.5 hrs, two doubling times, CCK-8
Method: as §1

[15] = test system: HT1080 fibrosarcoma cancer cells; settings: for effect on viability of HT1080 fibrosarcoma cancer cells: transfected 1.25-10 μM for 3.5 hrs, two doubling times, CCK-8
Method: as §1

cancer cells = experiment: Viability of cancer cells, summary statement; assay type: cell-based; settings: extended from the above and other findings; no test described
CMG helicase [16] = target: T1, CMG helicase; experiment: S phase arrested Xenopus egg extracts, chromatin RPA Western blot as readout for DNA helicase activity; assay type: biochemical; settings: extended from the above and other findings; no test described
[17] = transfected 1.25-10 μM for 3.5 hrs, two doubling times, CCK-8
[18] = transfected 1.25-20 μM for 3.5 hrs, two doubling times, CCK-8

DLVISFQLMLCVLDYFIK [7α, DLVISFQLMLCVLDYFIK]
inhibition of CMG helicase in vitro (chromatin RPA Western blot) (CMG helicase [1]): inhibit CMG helicase in vitro | IC50 [2]: 4.6 µM | effect on viability of BT-549 breast cancer cells [2, 17]: decreases viability | IC50 [3]: 115 µM | effect on viability of HMEC normal mammary epithelial cells [3, 18]: does not affect viability | IC50 [4]: 7.1 µM | effect on viability of M059J glioma cells [4]: decreases viability | IC50 [5]: 113 µM | effect on viability of SVG p12 normal brain cells [5, 18]: does not affect viability | IC50 (HepG2 liver cancer cells): 3.7 µM | effect on viability of HepG2 liver cancer cells (HepG2 liver cancer cells; transfected 1.25-5 μM for 3.5 hrs, two doubling times, CCK-8): decreases viability | IC50 [6]: 119 µM | effect on viability of THLE-3 normal liver cells [6]: does not affect viability | IC50 (A549 lung cancer cells): 16.5 µM | effect on viability of A549 lung cancer cells (A549 lung cancer cells): decreases viability | IC50 (H596 lung cancer cells): 7.5 µM | effect on viability of H596 lung cancer cells (H596 lung cancer cells): decreases viability | IC50 [7]: 225 µM | effect on viability of HLF normal primary lung fibroblasts [7]: does not affect viability | IC50 [8]: 6.4 µM | effect on viability of PANC-1 pancreatic cancer cells [8, 17]: decreases viability | IC50 [9]: 7.4 µM | effect on viability of Hs 766T pancreatic cancer cells [9]: decreases viability | IC50 [10]: 366 µM | effect on viability of hTERT-HPNE normal pancreatic cells [10]: does not affect viability | IC50 [11]: 10.3 µM | effect on viability of DU145 prostate cancer cells [11]: decreases viability | IC50 [12]: 9.6 µM | effect on viability of PC3 prostate cancer cells [12]: decreases viability | IC50 [13]: 9.5 µM | effect on viability of HCT-116 colorectal cancer cells [13]: decreases viability | IC50 [14]: 14.5 µM | effect on viability of U-2 OS osteosarcoma cancer cells [14]: decreases viability | IC50 [15]: 4.4 µM | effect on viability of HT1080 fibrosarcoma cancer cells [15]: decreases viability

ISFQLMLCVLDYF [7M, ISFQLMLCVLDYF]
IC50 [2]: 6.6 µM | IC50 [4]: 6.8 µM | IC50 [5]: 109 µM | IC50 (HepG2 liver cancer cells): 10 µM | IC50 [8]: 7.4 µM

LMGCVLD [7MM6-G4-D]
effect on viability of cancer cells (cancer cells): decrease viability of cancer cells | inhibition of CMG helicase (CMG helicase [16]): inhibit CMG helicase

LMLCVL [7MM6]
effect on viability of cancer cells (cancer cells): decrease viability of cancer cells | inhibition of CMG helicase (CMG helicase [16]): inhibit CMG helicase

LMLCVLD [7MM6-D]
effect on viability of cancer cells (cancer cells): decrease viability of cancer cells | inhibition of CMG helicase (CMG helicase [16]): inhibit CMG helicase

QGMLCVL [7MM-G2]
effect on viability of cancer cells (cancer cells): decrease viability of cancer cells | inhibition of CMG helicase (CMG helicase [16]): inhibit CMG helicase

QLMGCVL [7MM-G4]
effect on viability of cancer cells (cancer cells): decrease viability of cancer cells | inhibition of CMG helicase (CMG helicase [16]): inhibit CMG helicase

QLMLCVL [7MM, QLMLCVL]
IC50 [2]: 6.8 µM | IC50 [3]: 77.5 µM | effect on viability of HMEC normal breast cells [3, 17]: does not affect viability | IC50 [4]: 7.7 µM | effect on viability of M059J glioma cells [4]: decreases viability | IC50 [5]: 60.4 µM | effect on viability of SVG p12 normal glial cells [5, 17]: does not affect viability | IC50 (HepG2 liver cancer cells): 14.2 µM | IC50 [6]: 100 µM | effect on viability of THLE-3 normal liver cells [6]: does not affect viability | IC50 (A549 lung cancer cells): 15.6 µM | effect on viability of A549 lung cancer cells (A549 lung cancer cells): decreases viability | IC50 (H596 lung cancer cells): 7.6 µM | effect on viability of H596 lung cancer cells (H596 lung cancer cells): decreases viability | IC50 [7]: 110 µM | effect on viability of HLF normal primary lung fibroblasts [7]: does not affect viability | IC50 [8]: 10.1 µM | IC50 [9]: 5.7 µM | effect on viability of Hs 766T pancreatic cancer cells [9]: decreases viability | IC50 [10]: 79.9 µM | effect on viability of hTERT-HPNE normal pancreatic cells [10]: does not affect viability | IC50 [11]: 10.6 µM | effect on viability of DU145 prostate cancer cells [11]: decreases viability | IC50 [12]: 13 µM | effect on viability of PC3 prostate cancer cells [12]: decreases viability | IC50 [13]: 4.9 µM | effect on viability of HCT-116 colorectal cancer cells [13]: decreases viability | IC50 [14]: 9.6 µM | effect on viability of U-2 OS osteosarcoma cancer cells [14]: decreases viability | IC50 [15]: 9.7 µM | effect on viability of HT1080 fibrosarcoma cancer cells [15]: decreases viability

QLMLCVLD [7MM-D]
effect on viability of cancer cells (cancer cells): decrease viability of cancer cells | inhibition of CMG helicase (CMG helicase [16]): inhibit CMG helicase
